Test results from ChEMBL document CHEMBL1201862, “PubChem BioAssay data set” (2004).
Active and inactive are the calls of the source.

Legend:
Melanocortin receptor 4 = Melanocortin receptor 4 (Homo sapiens, UniProt P32245); assay: MC4R antagonist potency on cAMP, dose response, cell-based, TR-FRET, biased antagonists (AID 602298); type: functional;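 further: antagonist potency against agonist-stimulated cAMP production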
[1] = nonselective inhibitors of cellular cAMP signaling, dose response, counter-screen for MC4R biased antagonist project, cell-based, TR-FRET cAMP detection (AID 602305); type: functional;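 further: U2OS cells stimulated with forskolin near its EC80 as the cAMP inducer; potency is for inhibition of forskolin-stimulated cAMP signaling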
[2] = biological target: Melanin-concentrating hormone receptor 1 (Homo sapiens, UniProt Q99705); assay: Late-stage fluorescence-based counterscreen for antagonists of the G-protein coupled receptor 7 (GPR7): cell-based dose response assay to identify antagonists of the melanin-concentrating hormone receptor 1 (MCHR1). [Related pubchem assays (depositor defined):AID1861, AID1880, AID1952, AID2148, AID2251, AID2257, AID485339]; type: functional;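 further: stimulated with 30 nM MCH peptide agonist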
Melanin-concentrating hormone receptor 1, sequence (Q99705 whole entry): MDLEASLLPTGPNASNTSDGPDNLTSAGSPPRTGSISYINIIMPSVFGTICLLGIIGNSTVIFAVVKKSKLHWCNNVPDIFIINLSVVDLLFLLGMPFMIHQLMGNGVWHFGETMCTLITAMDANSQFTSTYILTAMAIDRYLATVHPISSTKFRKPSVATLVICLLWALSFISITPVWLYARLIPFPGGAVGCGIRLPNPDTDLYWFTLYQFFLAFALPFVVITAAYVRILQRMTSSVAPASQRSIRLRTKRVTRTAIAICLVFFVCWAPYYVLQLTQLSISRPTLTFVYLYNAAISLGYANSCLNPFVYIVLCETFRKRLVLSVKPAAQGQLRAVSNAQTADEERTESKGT

[3] = Late-stage luminescence-based cell-based dose response assay to identify antagonists of the G-protein coupled receptor 7 (GPR7): Cytotoxicity assay. [Related pubchem assays (depositor defined):AID1861, AID1880, AID1952, AID2148, AID2251, AID2257, AID485339]; type: functional
[4] = Late-stage results from the probe development effort to identify antagonists of the G-protein coupled receptor 7 (GPR7): luminescence-based cell-based dose response counterscreen assay to determine cytotoxicity of antagonist compounds Set 2.; type: functional
[5] = biological target: Sphingosine 1-phosphate receptor 1 (Homo sapiens, UniProt P21453); assay: Late-stage fluorescence-based dose-response cell-based counterscreen assay to identify agonists of the Sphingosine 1-Phosphate Receptor 4 (S1P4): Sphingosine 1-Phosphate Receptor 1 (S1P1) agonist assay Set 2.; type: functional
Sphingosine 1-phosphate receptor 1, sequence (P21453 whole entry): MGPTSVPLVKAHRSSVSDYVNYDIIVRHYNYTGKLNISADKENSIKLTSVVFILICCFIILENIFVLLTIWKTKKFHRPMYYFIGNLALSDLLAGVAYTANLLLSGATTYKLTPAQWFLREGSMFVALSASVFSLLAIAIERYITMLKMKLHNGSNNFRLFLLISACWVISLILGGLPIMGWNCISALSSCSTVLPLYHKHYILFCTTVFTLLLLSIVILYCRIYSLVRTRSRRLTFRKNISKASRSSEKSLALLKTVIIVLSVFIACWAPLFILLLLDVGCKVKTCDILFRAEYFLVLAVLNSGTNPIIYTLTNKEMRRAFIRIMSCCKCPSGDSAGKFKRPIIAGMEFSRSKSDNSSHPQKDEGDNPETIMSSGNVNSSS

[6] = biological target: Sphingosine 1-phosphate receptor 5 (Homo sapiens, UniProt Q9H228); assay: S1P5 receptor agonists, human, late-stage follow-up, counter-screen for S1P4 agonist project, cell-based, fluorescence, set 2 (AID 504867); type: functional
Sphingosine 1-phosphate receptor 5, sequence (Q9H228 whole entry): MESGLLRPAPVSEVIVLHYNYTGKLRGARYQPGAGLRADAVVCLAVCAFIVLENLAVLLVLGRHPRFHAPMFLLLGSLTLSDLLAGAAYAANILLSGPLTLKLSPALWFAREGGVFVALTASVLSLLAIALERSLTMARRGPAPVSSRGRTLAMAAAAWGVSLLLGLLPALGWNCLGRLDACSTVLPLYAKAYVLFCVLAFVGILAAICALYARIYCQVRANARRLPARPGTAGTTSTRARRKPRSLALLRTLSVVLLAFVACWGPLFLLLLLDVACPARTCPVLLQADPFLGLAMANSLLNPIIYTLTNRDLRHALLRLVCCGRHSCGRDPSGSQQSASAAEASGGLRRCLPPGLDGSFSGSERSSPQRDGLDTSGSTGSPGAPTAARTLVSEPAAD

[7] = biological target: Sphingosine 1-phosphate receptor 3 (Homo sapiens, UniProt Q99500); assay: Late-stage fluorescence-based dose-response cell-based counterscreen assay to identify agonists of the Sphingosine 1-Phosphate Receptor 4 (S1P4): Sphingosine 1-Phosphate Receptor 3 (S1P3) agonist assay Set 2.; type: functional
Sphingosine 1-phosphate receptor 3, sequence (Q99500 whole entry): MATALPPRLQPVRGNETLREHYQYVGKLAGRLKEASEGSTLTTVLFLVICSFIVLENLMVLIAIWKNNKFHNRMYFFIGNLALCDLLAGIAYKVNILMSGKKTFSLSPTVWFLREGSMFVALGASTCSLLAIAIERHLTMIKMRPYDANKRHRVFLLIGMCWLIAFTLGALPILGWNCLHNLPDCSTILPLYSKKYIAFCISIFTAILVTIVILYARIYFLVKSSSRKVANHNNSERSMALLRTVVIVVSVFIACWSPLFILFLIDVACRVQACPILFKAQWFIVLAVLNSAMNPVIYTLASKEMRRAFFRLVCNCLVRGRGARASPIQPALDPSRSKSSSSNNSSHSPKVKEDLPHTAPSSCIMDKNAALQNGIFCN

[8] = biological target: Sphingosine 1-phosphate receptor 2 (Homo sapiens, UniProt O95136); assay: S1P2 receptor agonists, human, late-stage follow-up, counter-screen for S1P4 agonist project, cell-based, fluorescence, set 2 (AID 504873); type: functional
Sphingosine 1-phosphate receptor 2, sequence (O95136 whole entry): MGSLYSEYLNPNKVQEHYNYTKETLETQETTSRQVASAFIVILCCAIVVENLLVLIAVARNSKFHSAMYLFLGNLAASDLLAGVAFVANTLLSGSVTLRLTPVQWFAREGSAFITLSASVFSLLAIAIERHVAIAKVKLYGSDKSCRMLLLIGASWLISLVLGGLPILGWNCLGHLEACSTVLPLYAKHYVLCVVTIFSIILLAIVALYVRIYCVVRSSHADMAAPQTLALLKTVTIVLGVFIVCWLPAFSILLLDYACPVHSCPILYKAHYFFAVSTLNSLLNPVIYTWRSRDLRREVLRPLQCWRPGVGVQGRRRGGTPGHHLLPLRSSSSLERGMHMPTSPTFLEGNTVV

[9] = biological target: Cyclin-dependent kinase 2 (Homo sapiens, UniProt P24941); type: functional;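 further: CDK2 measured as one member of a broad kinome profiling panel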
[10] = biological target: Serine/threonine-protein kinase pim-1 (Homo sapiens, UniProt P11309); type: functional
[11] = biological target: Cell division cycle 7-related protein kinase (Homo sapiens, UniProt O00311); type: functional;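 further: value obtained from a kinome-wide kinase panel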
Cell division cycle 7-related protein kinase, sequence (O00311 whole entry): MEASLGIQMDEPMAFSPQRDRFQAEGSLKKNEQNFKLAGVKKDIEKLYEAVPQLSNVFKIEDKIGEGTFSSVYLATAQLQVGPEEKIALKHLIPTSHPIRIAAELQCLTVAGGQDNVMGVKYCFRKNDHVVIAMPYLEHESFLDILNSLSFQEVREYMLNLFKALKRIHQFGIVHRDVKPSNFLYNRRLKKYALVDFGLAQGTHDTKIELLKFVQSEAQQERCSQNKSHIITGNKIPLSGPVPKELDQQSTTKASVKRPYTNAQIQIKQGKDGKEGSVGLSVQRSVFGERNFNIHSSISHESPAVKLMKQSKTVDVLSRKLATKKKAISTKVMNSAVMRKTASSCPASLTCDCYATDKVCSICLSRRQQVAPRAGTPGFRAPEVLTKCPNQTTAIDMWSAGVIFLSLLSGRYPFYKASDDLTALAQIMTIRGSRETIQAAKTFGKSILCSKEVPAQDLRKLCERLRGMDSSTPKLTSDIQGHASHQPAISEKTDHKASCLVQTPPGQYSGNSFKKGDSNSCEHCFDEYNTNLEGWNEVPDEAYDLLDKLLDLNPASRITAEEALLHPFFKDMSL

[12] = biological target: Homeodomain-interacting protein kinase 2 (Homo sapiens, UniProt Q9H2X6); type: functional;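 further: measured within a kinome-wide kinase profiling panel, HIPK2 being one panel member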
[13] = biological target: MAP kinase-interacting serine/threonine-protein kinase 2 (Homo sapiens, UniProt Q9HBH9); type: functional
[14] = biological target: Interleukin-1 receptor-associated kinase 4 (Homo sapiens, UniProt Q9NWZ3); type: functional
[15] = biological target: Glycogen synthase kinase-3 beta (Homo sapiens, UniProt P49841); type: functional;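 further: value comes from a broad kinome profiling panel, with GSK3B as the panel member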
Glycogen synthase kinase-3 beta, sequence (P49841 whole entry): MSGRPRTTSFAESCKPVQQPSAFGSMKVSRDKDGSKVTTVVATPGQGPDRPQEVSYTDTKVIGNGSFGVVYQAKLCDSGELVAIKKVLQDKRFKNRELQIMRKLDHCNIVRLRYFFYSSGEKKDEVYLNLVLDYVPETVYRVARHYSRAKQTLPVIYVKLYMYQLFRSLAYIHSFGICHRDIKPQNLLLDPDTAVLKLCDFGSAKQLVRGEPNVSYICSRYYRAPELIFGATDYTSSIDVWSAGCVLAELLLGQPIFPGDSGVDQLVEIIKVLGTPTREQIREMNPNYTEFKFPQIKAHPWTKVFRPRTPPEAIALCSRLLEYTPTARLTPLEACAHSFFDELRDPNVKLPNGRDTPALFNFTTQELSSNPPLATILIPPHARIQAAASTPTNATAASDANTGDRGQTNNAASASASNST

[16] = biological target: cAMP-dependent protein kinase catalytic subunit alpha (Homo sapiens, UniProt P17612); type: functional
[17] = biological target: Dual specificity protein kinase CLK4 (Homo sapiens, UniProt Q9HAZ1); type: functional
Dual specificity protein kinase CLK4, sequence (Q9HAZ1 whole entry): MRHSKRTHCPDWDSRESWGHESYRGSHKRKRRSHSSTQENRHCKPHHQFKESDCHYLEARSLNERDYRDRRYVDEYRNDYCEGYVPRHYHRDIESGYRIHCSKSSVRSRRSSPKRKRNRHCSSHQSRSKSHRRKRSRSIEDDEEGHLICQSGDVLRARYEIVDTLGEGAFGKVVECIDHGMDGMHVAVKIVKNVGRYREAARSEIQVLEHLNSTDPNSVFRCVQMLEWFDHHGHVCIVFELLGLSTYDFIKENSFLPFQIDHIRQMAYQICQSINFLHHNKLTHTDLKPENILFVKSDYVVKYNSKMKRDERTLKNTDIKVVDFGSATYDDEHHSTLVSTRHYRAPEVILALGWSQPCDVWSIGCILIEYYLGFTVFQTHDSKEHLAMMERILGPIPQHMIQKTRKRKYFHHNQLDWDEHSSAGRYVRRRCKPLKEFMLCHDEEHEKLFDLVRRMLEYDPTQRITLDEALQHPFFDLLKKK

[18] = biological target: Mitogen-activated protein kinase kinase kinase kinase 4 (Homo sapiens, UniProt O95819); type: functional
Mitogen-activated protein kinase kinase kinase kinase 4, sequence (O95819 whole entry): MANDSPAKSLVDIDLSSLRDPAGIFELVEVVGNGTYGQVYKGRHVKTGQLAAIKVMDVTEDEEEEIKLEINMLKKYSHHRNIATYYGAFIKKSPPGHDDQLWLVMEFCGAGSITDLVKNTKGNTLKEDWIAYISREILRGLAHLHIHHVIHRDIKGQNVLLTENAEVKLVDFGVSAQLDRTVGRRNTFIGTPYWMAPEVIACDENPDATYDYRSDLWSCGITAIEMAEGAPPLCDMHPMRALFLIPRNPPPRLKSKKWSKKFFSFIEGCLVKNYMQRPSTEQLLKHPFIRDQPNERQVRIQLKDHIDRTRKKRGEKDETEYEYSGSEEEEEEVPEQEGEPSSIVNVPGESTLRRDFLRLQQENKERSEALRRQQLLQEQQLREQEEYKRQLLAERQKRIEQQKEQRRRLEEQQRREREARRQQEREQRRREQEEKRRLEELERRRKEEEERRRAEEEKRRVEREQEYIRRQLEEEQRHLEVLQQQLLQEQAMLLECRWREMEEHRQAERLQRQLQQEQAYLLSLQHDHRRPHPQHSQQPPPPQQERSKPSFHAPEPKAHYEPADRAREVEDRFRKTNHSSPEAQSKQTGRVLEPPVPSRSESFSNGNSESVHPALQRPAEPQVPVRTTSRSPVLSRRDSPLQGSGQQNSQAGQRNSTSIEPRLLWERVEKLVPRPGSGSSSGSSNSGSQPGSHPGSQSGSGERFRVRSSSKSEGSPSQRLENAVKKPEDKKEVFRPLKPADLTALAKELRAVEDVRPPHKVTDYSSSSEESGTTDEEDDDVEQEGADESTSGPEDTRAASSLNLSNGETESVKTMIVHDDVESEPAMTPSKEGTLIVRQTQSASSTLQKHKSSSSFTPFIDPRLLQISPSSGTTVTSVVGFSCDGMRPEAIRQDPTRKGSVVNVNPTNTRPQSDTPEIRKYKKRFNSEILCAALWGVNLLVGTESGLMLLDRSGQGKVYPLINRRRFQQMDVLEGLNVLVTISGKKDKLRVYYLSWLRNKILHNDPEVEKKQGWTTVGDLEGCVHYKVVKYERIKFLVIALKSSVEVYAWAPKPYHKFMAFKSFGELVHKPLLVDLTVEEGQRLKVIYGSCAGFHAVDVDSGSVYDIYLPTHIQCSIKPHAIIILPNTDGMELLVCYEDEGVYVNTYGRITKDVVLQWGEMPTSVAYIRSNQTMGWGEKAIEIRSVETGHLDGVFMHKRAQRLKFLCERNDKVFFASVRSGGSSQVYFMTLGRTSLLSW

[19] = system: Streptococcus sp. 'group A'; assay: growth inhibition of control SK(-) GAS strain, dose response, counter-screen for streptokinase expression inhibitor project, luminescence, kanamycin, BacTiterGlo, confirmation (AID 1900); type: functional, organism-based
BJ [20] = assay: cytotoxicity toward BJ-TERT fibroblasts, dose response, cell-based, RAS-independent, luminescence (AID 1933); type: functional; conditions: Homo sapiens
Streptokinase A = biological target: T1, Streptokinase A (Streptococcus pyogenes serotype M1, UniProt P10520); assay: S. pyogenes streptokinase expression inhibitors, potency, dose response, plasminogen activation absorbance, OD405 (AID 1914); type: functional, Streptococcus pyogenes M1 GAS;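 further: secreted streptokinase activity via plasminogen activation per viability signal from cell pellet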
T1 sequence (P10520 whole entry): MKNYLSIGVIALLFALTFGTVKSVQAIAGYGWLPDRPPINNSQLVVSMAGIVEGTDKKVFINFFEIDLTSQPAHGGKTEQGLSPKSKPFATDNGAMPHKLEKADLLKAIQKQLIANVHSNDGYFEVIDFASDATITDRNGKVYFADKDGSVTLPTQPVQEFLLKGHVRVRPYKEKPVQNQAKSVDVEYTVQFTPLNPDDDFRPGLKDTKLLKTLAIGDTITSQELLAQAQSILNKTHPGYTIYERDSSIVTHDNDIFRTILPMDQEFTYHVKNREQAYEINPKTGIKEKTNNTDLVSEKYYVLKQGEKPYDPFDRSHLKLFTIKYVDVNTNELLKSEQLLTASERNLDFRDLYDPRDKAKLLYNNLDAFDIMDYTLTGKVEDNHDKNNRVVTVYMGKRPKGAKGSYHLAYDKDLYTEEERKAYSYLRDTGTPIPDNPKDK

BJ [21] = assay: cells; type: functional, cell-based; conditions: Homo sapiens
[22] = microbe, parasite or virus in culture; type: functional; conditions: Mycobacterium tuberculosis
BJ [23] = assay: cytotoxicity toward BJ-TERT-LT-ST fibroblasts, dose response, cell-based, RAS-independent, luminescence (AID 1935); type: functional; conditions: Homo sapiens;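 further: BJ fibroblasts immortalized with TERT plus LT and ST oncogenes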
[24] = cytotoxicity toward DRD oncogenic fibroblasts, dose response, cell-based, non-viral oncogenic, luminescence (AID 1934); type: functional; conditions: Homo sapiens
Streptococcus = assay: Group A Streptococcus viability loss, dose response, counter-screen for streptokinase expression inhibitor project, luminescence, BacTiterGlo (AID 1915); type: functional, organism-based;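 further: potency for reduction of bacterial viability or growth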
[25] = biological target: T2, Heat shock factor protein 1 (Mus musculus, UniProt P38532); assay: HSF1 potentiators in luciferase reporter cells, confirmation, cell-based, NIH3T3, luminescence, dose retest (AID 435004); type: functional;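 further: stress induced by proteasome inhibitor MG132 added 30 min after compound; luciferase reporter driven by HSF1 response element in NIH3T3 cells; actives raise luminescence as potentiators of the MG132 stress response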
T2 sequence (P38532 whole entry): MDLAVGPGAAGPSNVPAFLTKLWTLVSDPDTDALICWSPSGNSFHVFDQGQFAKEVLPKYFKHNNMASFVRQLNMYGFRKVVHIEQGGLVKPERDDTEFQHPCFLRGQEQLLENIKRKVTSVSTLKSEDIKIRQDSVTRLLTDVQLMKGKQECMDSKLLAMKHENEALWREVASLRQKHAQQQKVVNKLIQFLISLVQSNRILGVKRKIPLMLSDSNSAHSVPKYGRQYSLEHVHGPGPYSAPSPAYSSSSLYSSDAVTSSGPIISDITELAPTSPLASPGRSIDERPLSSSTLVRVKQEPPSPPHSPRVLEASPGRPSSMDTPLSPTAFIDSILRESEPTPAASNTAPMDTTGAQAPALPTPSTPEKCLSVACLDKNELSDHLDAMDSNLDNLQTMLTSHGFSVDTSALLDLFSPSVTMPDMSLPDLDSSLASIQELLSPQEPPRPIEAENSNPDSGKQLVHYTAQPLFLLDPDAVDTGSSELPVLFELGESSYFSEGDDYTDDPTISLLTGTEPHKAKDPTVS

[26] = biological target: Heat shock protein HSP 90-alpha (Homo sapiens, UniProt P07900); type: functional, organism-based
INS1 = assay: beta cell apoptosis inhibitors, cytokine rescue, dose response, luminescence, retest (AID 449756); type: functional, cell-based; conditions: Rattus norvegicus;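 further: cell death triggered by IL-1 beta plus TNF-alpha plus IFN-gamma mixture; protective hits raise ATP signal compared with cytokine alone wells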
[27] = A Cell Based Secondary Assay to Explore Cytotoxicity in THP-1 Cells of Compounds that Modulate Mycobacterium tuberculosis in Media Containing Glycerol versus Media without Glycerol (2).; type: functional
[28] = Vero cell cytotoxicity, cytotoxicity control for M. tuberculosis inhibitor project, purified and synthesized samples, set 3 (AID 504684); type: functional
[29] = THP-1 cell cytotoxicity, cytotoxicity control, set 4 (AID 504911); type: functional; conditions: Mycobacterium tuberculosis
[30] = A Cell Based Secondary Assay to Explore Cytotoxicity in HepG2 Cells of Compounds that Modulate Mycobacterium tuberculosis in Media Containing Glycerol versus Media without Glycerol (2).; type: functional
[31] = THP-1 cell cytotoxicity, dose response, cytotoxicity control, set 3 (AID 504852); type: functional; conditions: Mycobacterium tuberculosis
[32] = biological target: Protein kinase C theta type (Homo sapiens, UniProt Q04759); assay: Navigating the Kinome. Panel member name: PRKCQ; type: functional
[33] = biological target: Proto-oncogene tyrosine-protein kinase receptor Ret (Homo sapiens, UniProt P07949); type: functional;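 further: measured within a kinome-wide profiling panel, RET as the panel member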
[34] = biological target: Death-associated protein kinase 3 (Homo sapiens, UniProt O43293); type: functional;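 further: measured as one member of a kinome-wide profiling panel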
Aurora kinase A = Aurora kinase A (Homo sapiens, UniProt O14965); type: functional;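 further: value from the Navigating the Kinome kinase panel profiling, panel entry STK6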
Aurora kinase A, sequence (O14965 whole entry): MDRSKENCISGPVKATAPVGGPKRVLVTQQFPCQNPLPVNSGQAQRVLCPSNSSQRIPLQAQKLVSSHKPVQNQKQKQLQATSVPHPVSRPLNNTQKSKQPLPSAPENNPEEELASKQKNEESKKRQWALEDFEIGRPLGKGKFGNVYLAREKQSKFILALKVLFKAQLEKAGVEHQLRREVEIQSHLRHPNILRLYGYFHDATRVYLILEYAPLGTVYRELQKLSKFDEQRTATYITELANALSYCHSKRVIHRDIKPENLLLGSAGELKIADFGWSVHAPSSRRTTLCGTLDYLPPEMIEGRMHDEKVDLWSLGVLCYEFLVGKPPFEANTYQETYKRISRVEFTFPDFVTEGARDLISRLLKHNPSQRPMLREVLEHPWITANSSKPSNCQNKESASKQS

[35] = biological target: Glycogen synthase kinase-3 alpha (Homo sapiens, UniProt P49840); type: functional;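 further: GSK3A result taken from a broad kinome-wide kinase panel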
Activated CDC42 kinase 1 = Activated CDC42 kinase 1 (Homo sapiens, UniProt Q07912); assay: Navigating the Kinome. Panel member name: ACK1; type: functional
[36] = biological target: Vascular endothelial growth factor receptor 2 (Homo sapiens, UniProt P35968); type: functional
[37] = biological target: Cyclin-dependent kinase 5 (Homo sapiens, UniProt Q00535); type: functional;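 further: CDK5 measured as one member of a kinase profiling panel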
[38] = biological target: Dual specificity tyrosine-phosphorylation-regulated kinase 1B (Homo sapiens, UniProt Q9Y463); assay: Navigating the Kinome. Panel member name: DYRK1B; type: functional
Focal adhesion kinase 1 = Focal adhesion kinase 1 (Homo sapiens, UniProt Q05397); type: functional;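 further: measured as one member of a kinome panel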
[39] = biological target: Cyclin-dependent kinase 19 (Homo sapiens, UniProt Q9BWU1); assay: Navigating the Kinome. Panel member name: CDC2L6; type: functional
[40] = biological target: Cyclin-dependent kinase 8 (Homo sapiens, UniProt P49336); assay: Navigating the Kinome. Panel member name: CDK8; type: functional
[41] = biological target: Cyclin-dependent kinase 9 (Homo sapiens, UniProt P50750); type: functional;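 further: value from the CDK9 entry of a kinome-spanning kinase panel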
[42] = biological target: Macrophage colony-stimulating factor 1 receptor (Homo sapiens, UniProt P07333); type: functional;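 further: value comes from the Navigating the Kinome screening panel, CSF1R member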
[43] = biological target: Dual specificity tyrosine-phosphorylation-regulated kinase 1A (Homo sapiens, UniProt Q13627); type: functional;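 further: measured against DYRK1A as one member of a broad kinome profiling panel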
[44] = biological target: DNA dC->dU-editing enzyme APOBEC-3A (Homo sapiens, UniProt P31941); assay: SAR analysis of small molecule inhibitors of APOBEC3A DNA Deaminase via a fluorescence-based single-stranded DNA deaminase assay - Set 2.; type: functional; conditions: read-out: IC50_Mean
[45] = biological target: DNA dC->dU-editing enzyme APOBEC-3G (Homo sapiens, UniProt Q9HC16); assay: SAR analysis of small molecule inhibitors of APOBEC3G DNA Deaminase via a fluorescence-based single-stranded DNA deaminase assay - Set 2.; type: functional; conditions: read-out: IC50_Mean
[46] = biological target: Protein disulfide-isomerase (Homo sapiens, UniProt P07237); assay: PDI inhibitors, insulin aggregation turbidity, dose response, biochemical, absorbance, cherry-picked samples (AID 602350); type: functional

## O=C(Nc1ccccc1)OC1CCC2CC1CCC2OC(=O)Nc1ccccc1 (stereo unspecified)
Melanocortin receptor 4
  IC50: 7.46 µM (active)
[1]
  IC50: > 64.6 µM (inactive)

## COc1ccc(Oc2c(Cl)cnn(-c3cc(C)cc(C)c3)c2=O)cc1
[2]
  IC50: 3.9 µM (active)
[3]
  CC50: > 20 µM (inactive)
[4]
  CC50: > 20 µM (inactive)

## CC/N=C1/S/C(=C/c2cc(C)n(-c3ccc(Cl)cc3F)c2C)C(=O)N1CC
[5]
  EC50: 0.274 µM (active)
[6]
  EC50: 0.0367 µM (active)
[7]
  EC50: > 25 µM (inactive)
[8]
  EC50: > 25 µM (inactive)

## O=C(O)c1ccccc1Nc1ccnc(NCc2cccc(O)c2)n1
[9]
  Ki: > 7.94 µM (inactive)
[10]
  Ki: 2 µM (active)
[11]
  Ki: 0.0316 µM (active)
[12]
  Ki: > 3.16 µM (inactive)
[13]
  Ki: > 10 µM (inactive)
[14]
  Ki: > 10 µM (inactive)
[15]
  Ki: 1.26 µM (active)
[16]
  Ki: > 7.94 µM (inactive)
[17]
  Ki: 5.01 µM (active)
[18]
  Ki: 0.631 µM (active)

## Cc1cccc(/C=C/C(=O)c2ccc([N+](=O)[O-])o2)c1
[19]
  EC50: 3.96 µM (active)
BJ [20]
  EC50: > 150 µM (not active)
Streptokinase A
  EC50: 9.69 µM (active)
BJ [21]
  EC50: > 150 µM (inconclusive)
[22]
  CC50: 18.8 µM (active)
BJ [23]
  EC50: > 150 µM (inconclusive)
[24]
  EC50: 2.23 µM (active)
Streptococcus
  EC50: 14.4 µM (active)
[25]
  EC50: 3.43 µM (inconclusive)
[26]
  AC50: 2.39 µM (active)
INS1
  AC50: 3.29 µM (active)
[27]
  CC50: 12.2 µM (active)
[28]
  CC50: 12.4 µM (active)
[29]
  CC50: > 100 µM (active)
[30]
  CC50: 8.39 µM (active)
[31]
  CC50: > 100 µM (active)

## O=C1CN2C(=NN1)COc1ccccc12
[32]
  Ki: 3.98 µM (active)
[33]
  Ki: 50.1 µM (active)
[34]
  Ki: 10 µM (active)
Aurora kinase A
  Ki: > 63.1 µM (inactive)
[35]
  Ki: 50.1 µM (active)
Activated CDC42 kinase 1
  Ki: 25.1 µM (active)
[36]
  Ki: > 100 µM (inactive)
[37]
  Ki: 5.01 µM (active)
[38]
  Ki: 31.6 µM (active)
Focal adhesion kinase 1
  Ki: 100 µM (active)
[39]
  Ki: > 100 µM (inactive)
[40]
  Ki: 3.98 µM (active)
[15]
  Ki: 31.6 µM (active)
[41]
  Ki: > 63.1 µM (inactive)
[16]
  Ki: 39.8 µM (active)
[17]
  Ki: 3.98 µM (active)
[42]
  Ki: > 100 µM (inactive)
[43]
  Ki: 63.1 µM (active)

## O=C(O)c1cc2nccc(-c3cccs3)n2n1
[44]
  IC50: > 99 µM (inactive)
[45]
  IC50: > 99 µM (inactive)

## O=c1c(O[C@H]2O[C@@H](CO)[C@H](O)[C@@H](O)[C@@H]2O)c(-c2ccc(O)cc2)oc2cc(O)cc(O)c12
[46]
  AC50: 0.0155 µM (active)
